Test results as given in patent US9895377B2, “Solid forms of tyrosine kinase inhibitors, process for the preparation and their pharmaceutical composition thereof” (LAURUS LABS LIMITED, priority 2012, dated 2018).

Assay: delta pKa difference between tyrosine kinase inhibitor and anti-oxidative acids
Format: physicochemical
Settings: between the tyrosine kinase inhibitor and anti-oxidative acids; more than 3 = salt, less than 3 = co-crystal (FDA draft guidelines)

Compound	delta pKa difference
Cc1ccc(NC(=O)c2ccc(CN3CCN(C)CC3)cc2)cc1Nc1nccc(-c2cccnc2)n1 [imatinib, Imatinib]	more than 3
COc1cc2ncnc(Nc3ccc(F)c(Cl)c3)c2cc1OCCCN1CCOCC1 [gefitinib, Gefitinib]	less than 3
